In US7560456B2, “Pesticidal pyridinecarboxamide derivatives” (Merial Limited, priority 2002, dated 2009):

Legend:
[1] = system: black bean aphids (Aphis fabae); test: Method B: root-systemic test, aqueous solution of the formulated preparation pipetted into the bottle of field bean (Vicia faba) populated with aphids; type: in vivo; details: 10 ppm (based on content of active compound), 4 ml solution pipetted into bottle, after 3 and 6 days of storage, read-out: mortality among the aphids, by root-systemic action
Description: Germinated field bean seeds (Vicia faba) with seed roots were transferred into brown glass bottles filled with tap water. Four milliliters of an aqueous solution of the formulated preparation to be examined were pipetted into the brown glass bottle.
The field bean was then heavily populated with about 100 black bean aphids (Aphis fabae). Plants and aphids were then stored in a climatized chamber (16 hours of light/day, 25° C., 40-60% relative atmospheric humidity). After 3 and 6 days of storage, the root-systemic effect of the preparation on the aphids was determined.

[2] = system: black bean aphids (Aphis fabae); test: whole plant or invertebrate; details: in Vicia faba, read-out: mortality among the aphids

**Q.** With `C=CCSC(=NC(=O)c1cnccc1C(F)(F)F)NCc1ccccc1` [Compound A-724, 1-benzyl-S-(2-propenyl)-3-(4-trifluoromethyl-3-pyridylcarbonyl)isothiourea] as the compound, how does the mortality at 10 ppm [1] read?
**A.** Its mortality at 10 ppm is at least 80%.

**Q.** And the mortality at 100 ppm [2]?
**A.** Its mortality at 100 ppm is at least 50%.
